Results taken from US8513260B2, “Pyrazinylpyrazoles” (Bayer CropScience AG, priority 2009, dated 2013).

Experiments:
[1] = tested on: larvae of the mustard beetle (Phaedon cochleariae); assay: Phaedon test (PHAECO spray treatment); format: in vivo; conditions: Phaedon cochleariae, 168 h, Chinese cabbage discs, after 7 days, read-out: efficacy
How it was run: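 Chinese cabbage leaf discs were sprayed with compound formulated in acetone/dimethylformamide with alkylaryl polyglycol ether emulsifier and diluted in emulsifier-containing water. After drying, discs were populated with mustard beetle larvae. Efficacy (% larvae killed; 100% = all dead) was scored after 7 days.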

[2] = tested on: caterpillars of the armyworm (Spodoptera frugiperda); assay: Spodoptera frugiperda test (SPODFR spray treatment); format: in vivo; conditions: Spodoptera frugiperda, foliar, 168 h, maize leaf discs, after 7 days, read-out: efficacy
How it was run: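 Maize leaf discs sprayed with the compound at the desired concentration, formulated in acetone/dimethylformamide with alkylaryl polyglycol ether emulsifier and diluted in water, then infested with armyworm caterpillars after drying. Efficacy read after 7 days as % caterpillars killed (100% = all dead, 0% = none).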

[3] = tested on: Lucilia cuprina larvae; assay: Lucilia cuprina test (LUCICU); format: in vivo; conditions: 48 h, treated horse meat, after 2 days, read-out: efficacy (kill)
Experimental: (§1) Lucilia cuprina Test (LUCICU) Solvent: dimethyl sulphoxide To prepare an appropriate active ingredient formulation, 10 mg of active ingredient are mixed with 0.5 ml of dimethyl sulphoxide and the concentrate is diluted with water to the desired concentration. Vessels containing horse meat treated with the active ingredient preparation of the desired concentration are populated with about 20 Lucilia cuprina larvae. After 2 days, the kill in % is determined. 100% means that all of the larvae have been killed; 0% means that none of the larvae have been killed.

[4] = tested on: adult engorged Boophilus microplus females of the SP-resistant Parkhurst strain; assay: Boophilus microplus (dip); format: in vivo; conditions: Rhipicephalus microplus, 168 h, after 7 days, laying of fertile eggs, read-out: efficacy
Experimental: Boophilus microplus (dip)
Test animals: adult engorged Boophilus microplus females of the SP-resistant Parkhurst strain
Solvent: dimethyl sulphoxide
10 mg of active ingredient are dissolved in 0.5 ml of dimethyl sulphoxide. For the purpose of preparing a suitable formulation, the active ingredient solution is diluted with water to the concentration desired in each case. This active ingredient preparation is pipetted into tubes. 8-10 ticks are transferred into a further tube with holes. The tube is immersed into the active ingredient formulation, and all ticks are completely wetted. After the liquid has run out, the ticks are transferred onto filter discs in plastic dishes and stored in a climate-controlled room. The activity is assessed after 7 days by laying of fertile eggs. Eggs whose fertility is not outwardly visible are stored in glass tubes in a climate-controlled cabinet until the larvae hatch. Efficacy of 100% means that none of the ticks has laid any fertile eggs.

[5] = tested on: adult Musca domestica; assay: Musca domestica test; format: in vivo; conditions: after 2 days
Experimental: as §1, with “Musca domestica” for “Lucilia cuprina”, “Test” for “Test (LUCICU)”, “a sponge” for “horse meat”, “adult Musca domestica.” for “about 20 Lucilia cuprina larvae.”, “flies” for “larvae”

[6] = logP by HPLC on reversed-phase columns (C 18), EEC Directive 79/831 Annex V.A8; format: physicochemical; conditions: reversed-phase C18 HPLC column, pH 2.7, * LC-MS, acidic range pH 2.7, 0.1% aqueous formic acid and acetonitrile; read-out: log P
Source text: [table] The calibration is effected with unbranched alkan-2-ones (having 3 to 16 carbon atoms) with known logP values (logP values determined on the basis of the retention times by linear interpolation between two successive alkanones).

[7] = tested on: Boophilus microplus; assay: Boophilus microplus test (BOOPMI injection); format: in vivo; conditions: Rhipicephalus microplus, 168 h; 20 μg animal; injection into the abdomen; after 7 days, laying of fertile eggs; read-out: efficacy
How it was run: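 Adult female ticks injected in the abdomen with active ingredient in DMSO, then held in a climate-controlled room. Efficacy (%) scored after 7 days from laying of fertile eggs, 100% meaning no tick laid fertile eggs.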

[8] = tested on: green peach aphid (Myzus persicae); assay: Myzus test (MYZUPE spray treatment); format: in vivo; conditions: Myzus persicae, 144 h, Chinese cabbage discs, after 6 days, read-out: efficacy
Experimental: Myzus Test (MYZUPE Spray Treatment) Solvent: 78 parts by weight of acetone • • 1.5 parts by weight of dimethylformamide Emulsifier: 0.5 part by weight of alkylaryl polyglycol ether To prepare an appropriate active ingredient preparation, 1 part by weight of active ingredient is mixed with the stated amounts of solvent and emulsifier, and the concentrate is diluted with emulsifier-containing water to the desired concentration. Discs of Chinese cabbage (Brassica pekinensis) infested by all stages of the green peach aphid (Myzus persicae) are sprayed with an active ingredient preparation of the desired concentration. After 6 days, the efficacy in % is determined. 100% means that all of the aphids have been destroyed; 0% means that none of the aphids have been destroyed.

[9] = tested on: unfed adult fleas (Ctenocephalides felis); assay: Ctenocephalides felis test (CTECFE); format: in vivo; conditions: Ctenocephalides felis, 48 h; 100 ppm in citrated cow's blood; after 2 days; read-out: efficacy (kill)
Experimental: Ctenocephalides felis Test ([…]) Solvent: 1 part by weight of dimethyl sulphoxide For the purpose of preparing an appropriate active ingredient formulation, 10 mg of active ingredient are mixed with 0.5 ml of dimethyl sulphoxide. A portion of the concentrate is diluted with citrated cow's blood and the desired concentration is established. About 20 unfed adult fleas (Ctenocephalides felis) are introduced into a chamber closed at the top and bottom with gauze. A metal cylinder, the bottom of which is closed with Parafilm, is placed onto the chamber. The cylinder contains the blood/active ingredient preparation, which can be imbibed by the fleas through the Parafilm membrane. After 2 days, the kill in % is determined. 100% means that all fleas have been killed; 0% means that none of the fleas have been killed.

[10] = tested on: red spider mite (Tetranychus urticae); assay: Tetranychus test, OP-resistant (TETRUR spray treatment); format: in vivo; conditions: Tetranychus urticae, foliar, 144 h, 500 g/ha, bean leaf discs, after 6 days, read-out: efficacy
How it was run: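 Bean leaf discs (Phaseolus vulgaris) infested with all mite stages were sprayed with active ingredient diluted in emulsifier-containing water at the desired concentration. Mortality read after 6 days as % efficacy, where 100% = all mites killed and 0% = none killed.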

[11] = tested on: Tick nymphs (Amblyomma hebraeum); assay: Amblyomma hebraeum test (AMBYHE); format: in vivo; conditions: 100 ppm; immersed one minute; after 42 days
Experimental: Amblyomma hebraeum Test (AMBYHE) Solvent: dimethyl sulphoxide To prepare an appropriate active ingredient formulation, 10 mg of active ingredient are mixed with 0.5 ml of dimethyl sulphoxide and the concentrate is diluted with water to the desired concentration. Tick nymphs (Amblyomma hebraeum) are placed into perforated plastic beakers and immersed in the desired concentration for one minute. The ticks are transferred on filter paper into a Petri dish and stored in a climate-controlled cabinet. After 42 days, the kill in % is determined. 100% means that all of the ticks have been killed; 0% means that none of the ticks have been killed.

`COc1nccnc1-n1nc(C(F)(F)F)c(-c2cc(C(F)(F)F)cc(C(F)(F)F)c2)c1N` [Ex. 14] gave a pest or weed control at 500 g/ha [1] of 100%, a pest or weed control at 500 g/ha [2] of 100% and a pest or weed control at 100 ppm [3] of 100%. For the same compound, the pest or weed control at 100 ppm [4] was 90%, the “efficacy (kill)” value ([5]; 20 ppm) was 90% and the chromatographic logP [6] was 4.2. For the same compound, the pest or weed control at 0.02 mg [7] was 100%, the pest or weed control at 500 g/ha [8] was 100% and the pest or weed control at 100 ppm [9] was 100%. For the same compound, the pest or weed control at 500 g/ha [10] was 100%.

Work on `COc1nccnc1-n1nc(C(F)(F)F)c(-c2cc(Cl)c3c(c2)OCO3)c1N` [Ex. 48] yielded a pest or weed control at 500 g/ha [1] of 100%, a pest or weed control at 500 g/ha [2] of 100% and a pest or weed control at 100 ppm [3] of 100%. The pest or weed control at 100 ppm [4] was 100%, the “efficacy (kill)” value ([5]; 20 ppm) was 90% and the chromatographic logP [6] was 3.14. For the same compound, the pest or weed control at 0.02 mg [7] was 100%, the pest or weed control at 500 g/ha [8] was 90% and the pest or weed control at 100 ppm [9] was 100%. For the same compound, the “efficacy (kill)” value [11] was 100% and the pest or weed control at 500 g/ha [10] was 100%.

In the case of `COc1nccnc1-n1nc(C)c(-c2cc(Cl)c3c(c2)OCO3)c1N` [Ex. 75], the pest or weed control at 500 g/ha [1] is reported as 100%, the pest or weed control at 500 g/ha [2] is reported as 100% and the pest or weed control at 100 ppm [3] is reported as 100%. For the same compound, the pest or weed control at 100 ppm [4] was 100%, the “efficacy (kill)” value ([5]; 100 ppm) was 100% and the chromatographic logP [6] was 2.26. The pest or weed control at 0.02 mg [7] was 100%, the pest or weed control at 500 g/ha [8] was 100% and the pest or weed control at 100 ppm [9] was 100%. It also gave a pest or weed control at 500 g/ha [10] of 100%.

Compound `CCc1nn(-c2nccnc2OC)c(N)c1-c1cc(Cl)c2c(c1)OCO2` [Ex. 76] has a pest or weed control at 500 g/ha [1] of 100%, a pest or weed control at 500 g/ha [2] of 83% and a pest or weed control at 100 ppm [3] of 100%. For the same compound, the pest or weed control at 100 ppm [4] was 100%, the “efficacy (kill)” value ([5]; 100 ppm) was 80% and the chromatographic logP [6] was 2.57. The pest or weed control at 0.02 mg [7] was 100%, the pest or weed control at 500 g/ha [8] was 80% and the pest or weed control at 100 ppm [9] was 90%. For the same compound, the “efficacy (kill)” value [11] was 100%.
